Data on 3 compounds can be found in US11524077B2, “Orally active, cell-penetrating homing peptide and methods using same” (Vascular BioSciences, priority 2012, dated 2022).

Bridge positions count the residues as written; N and C are the ends. Ends that are not written are not given here. Peptide text beside a SMILES is read from it.

Series [1] relates to trypsin. In words: trypsin digest time-course experiment with mass spectrometry analysis. It is filed as in vitro ADME. The conditions noted are these: trypsin in Krebbs buffer, 24° C., 0-120 minutes. From the text:
In an effort to further understand the oral availability of cyclic CAR peptide, we tested the stability of cyclic CAR (cCAR) and linear CAR in the presence of trypsin, a serine protease that is one of the primary enzymes found in the digestive system of vertebrates. Trypsin selectively cleaves peptide chains at the carboxyl side of the basic residues lysine and arginine, yielding a potentially wide variety of peptide fragments.
We conducted a trypsin proteolysis time course experiment, and tested cCAR and linear CAR (cyclic CAR that lacks the disulfide bond between adjacent cysteine residues and has a linear structure) in the presence of a trypsin solution.
For the digest time course experiment, the cCAR peptide sample was prepared by dissolving cCAR in Krebbs buffer (670 μM CAR), and the trypsin digest solution was prepared by adding trypsin to Krebbs buffer as well (0.1 μg/μL Trypsin). 15 μL CAR (670 μM) was added to 40 μL trypsin solution (0.1 μg/μL) and 75 μL Krebbs buffer. The reaction was allowed to proceed at 24° C. for different time periods of time. The reactions were quenched with 20 μL formic acid (500 μM) at different time points to stop trypsin from degrading any further peptide substrate. These steps were performed repeatedly for multiple time points (t=0, 5, 10, 15, 20, 30, 60, 120 minutes) for both cCAR and linear CAR. The different time point samples were desalted and analyzed using mass spectrometry.

Series [2] deals with pulmonary hypertensive arteries. The note with it: monocrotaline (MCT) and SU5416/Hypoxia/Normoxia severe occlusive rat models of PAH; cited from earlier work.
Series [3] relates to SU/Hx/Nx rats with severe occlusive model PAH. Description: sublingual CAR +/- imatinib or sildenafil in rats with severe occlusive model PAH. It is filed as in vivo, rat. The conditions noted are these: CAR 3 mg/kg sublingual; i.v. bolus imatinib or sildenafil; RVSP and SAP. The procedure:
(A) a pulmonary artery with medial thickening, (B) a small pulmonary artery with neointimal occlusion, (C) spleen, (D) liver, and (E) kidney from a SU/Hx/Nx rat. […] Effects of CAR (3 mg/kg, sublingual) on intravenous (bolus) imatinib (F)- and sildenafil (G)- induced reductions in right ventricular systolic pressure (RVSP) and systemic arterial pressure (SAP) in SU/Hx/Nx rats. Values are means±SE. N=4-6. *p<0.05 with (solid line) vs. without (dashed line) CAR.
CAR was administered sublingually at a dosing of 3 mg/kg. The administration was performed in six rats with severe occlusive model PAH via dropper sublingually. The administration was +/− imatinib or +/− sildenafil.

The test system of series [4] is severe occlusive PAH rats (SU5416/Hx/Nx-exposed). In words: hemodynamic effect of oral CAR 3 hours prior to i.v. imatinib in severe occlusive rat model of PAH. It is filed as in vivo. The method, then: Anesthetized severe occlusive PAH rats were then catheterized in the right jugular vein for measurement of right ventricular systolic pressure (RVSP), the right carotid artery and advanced into the aorta for the measurement of systemic pressure (SAP) and the left jugular vein for drug administration.
Values are means±SE. N=3 without CAR and N=5 with CAR *p<0.05 vs. without CAR.
Recently we sought to explore the hemodynamic effect of orally administering 20 mg/kg of CAR 3 hours prior to i.v. administration of imatinib at doses of 5 mg/kg and 20 mg/kg in a severe occlusive rat model of PAH. Rats were first orally syringe fed a mixture of 20 mg/Kg CAR in a 10% sucrose solution 3 hours prior to anesthetization and assessment of the hemodynamic effects of i.v. administration of 5 mg/kg imatinib followed 20 minutes later by i.v. administration of 20 mg/kg of imatinib (FIG. 1).

The conditions of series [5]: co-administered with the Rho-kinase inhibitor fasudil; cited from earlier work.
Where [6] appears, read: imatinib i.v. 20 mg/kg, 3 hours after oral CAR 20 mg/kg, severe occlusive PAH rats.

For the compound `C[C@H](NC(=O)[C@@H]1CSSC[C@H](NC(=O)[C@H](CC(=O)O)NC(=O)[C@H](CCCCN)NC(=O)[C@H](CC(N)=O)NC(=O)[C@H](CCCCN)NC(=O)[C@@H](N)CO)C(=O)N1)C(=O)N[C@@H](CCCNC(=N)N)C(=O)O` [SEQ ID NO: 5, SKNKDCCAR] (H-SKNKDCCAR-OH; disulfide 6-7; N-terminus and C-terminus assumed), in series [1], the “outcome of trypsin digest (stability in words)” value (“outcome of trypsin digest” below) was “largely resistant to further degradation by trypsin”, the “resistance to trypsin digestion relative to cCAR” value was “approximately 10 fold” and the “resistance to trypsin digestion relative to linear CAR” value is “approximately 100 fold”.
As for `C[C@H](NC(=O)[C@@H](N)CS)C(=O)N[C@@H](CCCNC(=N)N)C(=O)N[C@@H](CO)C(=O)N[C@@H](CCCCN)C(=O)N[C@@H](CC(N)=O)C(=O)N[C@@H](CCCCN)C(=O)N[C@@H](CC(=O)O)C(=O)N[C@@H](CS)C(=O)O` [linear CAR] (H-CARSKNKDC-OH; N-terminus and C-terminus assumed), the “outcome of trypsin digest” value in series [1] is “quickly digested by trypsin into its constituent amino acids”.
Take “CARSKNKDC (disulfide 1-9 (inferred)) [cell-penetrating homing peptide]”: the “homing to pulmonary hypertensive arteries” value in series [2] is “shown to home to pulmonary hypertensive arteries”. In series [3], the “effect on action of co-administered drugs” value is given as “can facilitate the selective action of co-administered drugs at the site of the disease”. Moreover, the “adjuvant activity after oral administration” value in series [4] (3 hours after oral CAR 20 mg/kg in 10% sucrose, i.v. imatinib) was “displayed pulmonary selective adjuvant activity”. Also, in series [4] (setting [6]), the “change in systemic arterial pressure (SAP)” value is recorded as “no change” and the “reduction in right ventricular systolic pressure (RVSP)” value was 18%. Besides, in series [5], the “vasodilation when co-administered with fasudil” value is “acute pulmonary selective vasodilation”. Also, the “outcome of trypsin digest” value in series [1] is recorded as “yielded one predominant product that persisted over the time course of the experiment”.
